Source: patent US20250136606A1, “MODULATORS OF TRPML, THEIR COMPOSITIONS AND METHODS OF USE” (Caraway Therapeutics, Inc., priority 2021, published 2025)
pEC50: −log10 of the molar value.

Legend:
Type in all cases: cell-based
Details in all cases: fluorescent calcium assay
TRPML2 = target: T1, TRPML2 (Homo sapiens, UniProt Q8IZK6); assay: Fluorescent TRPML2 assay (performed as for TRPML1, substituting the TRPML2 subtype)
T1 construct: expressed in transfected cells
T1 sequence (Q8IZK6 1-566): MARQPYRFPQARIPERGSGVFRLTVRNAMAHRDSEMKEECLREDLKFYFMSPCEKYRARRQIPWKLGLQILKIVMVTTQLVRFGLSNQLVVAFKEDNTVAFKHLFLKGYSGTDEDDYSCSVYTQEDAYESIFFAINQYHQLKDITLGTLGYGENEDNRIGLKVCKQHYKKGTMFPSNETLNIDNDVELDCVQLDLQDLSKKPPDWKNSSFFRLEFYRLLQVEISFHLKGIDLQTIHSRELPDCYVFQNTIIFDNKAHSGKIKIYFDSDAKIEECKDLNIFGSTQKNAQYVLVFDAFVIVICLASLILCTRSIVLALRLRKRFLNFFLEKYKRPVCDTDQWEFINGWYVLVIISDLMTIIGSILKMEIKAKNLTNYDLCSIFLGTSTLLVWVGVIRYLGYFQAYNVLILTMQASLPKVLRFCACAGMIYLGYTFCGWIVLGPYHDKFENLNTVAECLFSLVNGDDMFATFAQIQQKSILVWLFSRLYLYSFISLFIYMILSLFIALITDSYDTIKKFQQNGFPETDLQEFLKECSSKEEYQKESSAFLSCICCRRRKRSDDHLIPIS
Summary of the method: (§1)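 Compound series (final 6 nM-20 μM, half-log, triplicate) were added to Fluo4-AM-loaded HEK-293 Trex cells in 10 mM calcium Ringer's, expressing the human TRPML subtype after doxycycline 0.5 ug/mL induction. Percent activity versus positive/negative controls from 480/540 nm fluorescence; EC50 by non-linear regression.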

TRPML1 = TRPML1 (Homo sapiens, UniProt Q9GZU1); assay: Fluorescent TRPML1 assay (Fluo4-AM calcium fluorescence in doxycycline-induced HEK-293 Trex cells)
Summary of the method: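 hTRPML1 (mutated for cell-surface expression) in HEK-293 Trex, dox 0.5 ug/mL o/n; Fluo4-AM 1 uM ~60 min, then ~60 min de-esterification, dark; modified Ringer's + 10 mM Ca. Cmpds 20 uM–6 nM final, half-log, n=3. Ex480/Em540; % activity vs ctrls; EC50 by nonlinear regression.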

TRPML3 = target: T2, TRPML3 (Homo sapiens, UniProt Q8TDD5); assay: Fluorescent TRPML3 assay (performed as for TRPML1, substituting the TRPML3 subtype)
T2 construct: expressed in transfected cells
T2 sequence (Q8TDD5 1-553): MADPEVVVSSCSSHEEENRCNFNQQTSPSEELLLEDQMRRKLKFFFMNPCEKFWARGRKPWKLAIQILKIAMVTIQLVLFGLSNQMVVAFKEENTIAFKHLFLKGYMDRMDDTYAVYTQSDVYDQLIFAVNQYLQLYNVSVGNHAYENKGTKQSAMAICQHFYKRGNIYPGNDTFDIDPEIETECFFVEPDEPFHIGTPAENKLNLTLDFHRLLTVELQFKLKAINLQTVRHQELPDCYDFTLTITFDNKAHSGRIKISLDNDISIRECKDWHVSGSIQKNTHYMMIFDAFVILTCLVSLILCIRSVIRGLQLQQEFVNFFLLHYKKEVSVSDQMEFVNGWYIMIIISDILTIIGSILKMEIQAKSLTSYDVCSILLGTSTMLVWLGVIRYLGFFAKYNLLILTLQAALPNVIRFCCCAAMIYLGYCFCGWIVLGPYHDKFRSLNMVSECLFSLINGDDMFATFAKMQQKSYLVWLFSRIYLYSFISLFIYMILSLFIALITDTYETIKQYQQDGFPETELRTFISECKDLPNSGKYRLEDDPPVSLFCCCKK
Summary of the method: as §1

Chain of TRPML1 (Q9GZU1 whole entry L15A/L16A/L577A/L578A, form open): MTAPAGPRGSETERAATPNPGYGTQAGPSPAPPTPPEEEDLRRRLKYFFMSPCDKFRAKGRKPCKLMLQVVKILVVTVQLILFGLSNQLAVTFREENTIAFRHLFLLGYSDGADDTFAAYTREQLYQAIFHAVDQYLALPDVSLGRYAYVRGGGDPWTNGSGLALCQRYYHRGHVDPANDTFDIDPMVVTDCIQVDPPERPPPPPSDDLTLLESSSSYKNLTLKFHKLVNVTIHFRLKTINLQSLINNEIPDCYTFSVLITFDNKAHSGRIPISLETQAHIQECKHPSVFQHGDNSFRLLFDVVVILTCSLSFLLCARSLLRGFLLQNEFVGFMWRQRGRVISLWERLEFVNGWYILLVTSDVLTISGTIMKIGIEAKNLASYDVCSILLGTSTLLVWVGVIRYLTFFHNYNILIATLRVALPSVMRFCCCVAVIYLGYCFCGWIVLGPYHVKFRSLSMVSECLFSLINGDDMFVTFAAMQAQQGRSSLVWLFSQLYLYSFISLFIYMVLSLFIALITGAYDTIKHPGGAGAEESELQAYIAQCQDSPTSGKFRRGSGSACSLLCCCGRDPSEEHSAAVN

SMILES	pEC50 (TRPML2)	pEC50 (TRPML1)	pEC50 (TRPML3)
C[C@H]1CN(C(=O)OC(C)(C)C)CCN1c1ncnc2c1c(C1CC1)nn2-c1cc(C#N)ccn1 [Compound 343]	< 5.70	5.70 to 6.30	6.30 to 7.00
C[C@H]1CN(C(=O)OC(C)(C)C)CCN1c1ncnc2c1c(N1CCOCC1)cn2C1CCCCC1 [Compound 344, tert-butyl (S)-4-(7-cyclohexyl-5-morpholino-7H-pyrrolo[2,3-d]pyrimidin-4-yl)-3-methylpiperazine-1-carboxylate]	< 5.70	6.30 to 7.00	6.30 to 7.00
C[C@H]1CN(C(=O)OC(C)(C)C)CCN1c1ncnc2c1c(C1CC1)cn2C1CCCOC1 (stereo partly drawn) [Compound 345, tert-butyl (3S)-4-(5-cyclopropyl-7-(tetrahydro-2H-pyran-3-yl)-7H-pyrrolo[2,3-d]pyrimidin-4-yl)-3-methylpiperazine-1-carboxylate]	< 5.70	5.70 to 6.30	5.70 to 6.30
C[C@H]1CN(C(=O)OC(C)(C)C)CCN1c1ncnc2c1c(-c1ccncc1F)cn2-c1cc(C#N)ccn1 [Compound 355, tert-butyl (S)-4-(7-(4-cyanopyridin-2-yl)-5-(3-fluoropyridin-4-yl)-7H-pyrrolo[2,3-d]pyrimidin-4-yl)-3-methylpiperazine-1-carboxylate]	> 7.00	> 7.00	> 7.00
C[C@@H]1CN(c2ncnc3c2c(N2CCCC2)cn3-c2cc(F)c(F)c(F)c2)CCN1C(=O)OC(C)(C)C [Compound 362, tert-butyl (R)-2-methyl-4-(5-(pyrrolidin-1-yl)-7-(3,4,5-trifluorophenyl)-7H-pyrrolo[2,3-d]pyrimidin-4-yl)piperazine-1-carboxylate]	6.30 to 7.00	> 7.00	> 7.00
C[C@@H]1CN(c2cn(-c3cccc(C#N)c3)c3ncnc(N4CCN(C(=O)OC(C)(C)C)C[C@@H]4C)c23)CCO1 [Compound 363, tert-butyl (S)-4-(7-(3-cyanophenyl)-5-((R)-2-methylmorpholino)-7H-pyrrolo[2,3-d]pyrimidin-4-yl)-3-methylpiperazine-1-carboxylate]	5.70 to 6.30	6.30 to 7.00	> 7.00
C[C@H]1CN(C(=O)OC(C)(C)C)CCN1c1ncnc2c1c(C1CC1)cn2C12CCC(CC1)CC2 [Compound 364, tert-butyl (S)-4-(7-(bicyclo[2.2.2]octan-1-yl)-5-cyclopropyl-7H-pyrrolo[2,3-d]pyrimidin-4-yl)-3-methylpiperazine-1-carboxylate]	6.30 to 7.00	> 7.00	> 7.00
C[C@H]1CN(C(=O)OC(C)(C)C)CCN1c1ncnc2c1c(C1CC1(F)F)cn2-c1cc(C#N)ccn1 (stereo partly drawn) [Compound 365, tert-butyl (3S)-4-(7-(4-cyanopyridin-2-yl)-5-(2,2-difluorocyclopropyl)-7H-pyrrolo[2,3-d]pyrimidin-4-yl)-3-methylpiperazine-1-carboxylate]	6.30 to 7.00	> 7.00	> 7.00
CCN(CC)c1cn(-c2cccc(Cl)c2)c2ncnc(N3CCN(C(=O)OC(C)(C)C)C[C@@H]3C)c12 [Compound 366, tert-butyl (S)-4-(7-(3-chlorophenyl)-5-(diethylamino)-7H-pyrrolo[2,3-d]pyrimidin-4-yl)-3-methylpiperazine-1-carboxylate]	6.30 to 7.00	> 7.00	> 7.00
C[C@@H]1CN(c2ncnc3c2c(-c2ccccn2)cn3-c2cc(C#N)ccn2)CCN1C(=O)OC(C)(C)C [Compound 367, tert-butyl (R)-4-(7-(4-cyanopyridin-2-yl)-5-(pyridin-2-yl)-7H-pyrrolo[2,3-d]pyrimidin-4-yl)-2-methylpiperazine-1-carboxylate]	6.30 to 7.00	> 7.00	> 7.00
C[C@H]1CN(C(=O)OCC(F)(F)F)CCN1c1ncnc2c1c(C1CC1)cn2-c1cc(C#N)ccn1 [Compound 368, 2,2,2-trifluoroethyl (S)-4-(7-(4-cyanopyridin-2-yl)-5-cyclopropyl-7H-pyrrolo[2,3-d]pyrimidin-4-yl)-3-methylpiperazine-1-carboxylate]	5.70 to 6.30	> 7.00	> 7.00
C[C@@H]1COCCN1c1cn(-c2cccc(C#N)c2)c2ncnc(N3CCN(C(=O)OC(C)(C)C)C[C@@H]3C)c12 [Compound 369, tert-butyl (S)-4-(7-(3-cyanophenyl)-5-((R)-3-methylmorpholino)-7H-pyrrolo[2,3-d]pyrimidin-4-yl)-3-methylpiperazine-1-carboxylate]	5.70 to 6.30	6.30 to 7.00	6.30 to 7.00

Now from value to compound:

pEC50 (TRPML2)	pEC50 (TRPML1)	pEC50 (TRPML3)	SMILES
> 7.00	> 7.00	> 7.00	CCOC(=O)N1CCN(c2ncnc3c2c(-c2ccccc2F)cn3-c2cc(C#N)ccn2)[C@@H](C)C1 [Compound 346, ethyl (S)-4-(7-(4-cyanopyridin-2-yl)-5-(2-fluorophenyl)-7H-pyrrolo[2,3-d]pyrimidin-4-yl)-3-methylpiperazine-1-carboxylate]
> 7.00	> 7.00	> 7.00	CC(C)OC(=O)N1CCN(c2ncnc3c2c(-c2ccccc2F)cn3-c2cc(C#N)ccn2)[C@@H](C)C1 [Compound 347, isopropyl (S)-4-(7-(4-cyanopyridin-2-yl)-5-(2-fluorophenyl)-7H-pyrrolo[2,3-d]pyrimidin-4-yl)-3-methylpiperazine-1-carboxylate]
> 7.00	> 7.00	> 7.00	CC(OC(=O)N1CCN(c2ncnc3c2c(-c2ccccc2F)cn3-c2cc(C#N)ccn2)[C@@H](C)C1)C(F)(F)F (stereo partly drawn) [Compound 348, 1,1,1-trifluoropropan-2-yl (3S)-4-(7-(4-cyanopyridin-2-yl)-5-(2-fluorophenyl)-7H-pyrrolo[2,3-d]pyrimidin-4-yl)-3-methylpiperazine-1-carboxylate]
> 7.00	> 7.00	> 7.00	C[C@H]1CN(C(=O)OCC(F)(F)F)CCN1c1ncnc2c1c(-c1ccccc1F)cn2-c1cc(C#N)ccn1 [Compound 349, 2,2,2-trifluoroethyl (S)-4-(7-(4-cyanopyridin-2-yl)-5-(2-fluorophenyl)-7H-pyrrolo[2,3-d]pyrimidin-4-yl)-3-methylpiperazine-1-carboxylate]
> 7.00	> 7.00	> 7.00	C[C@H]1CN(C(=O)OC(C)(C)C)CCN1c1ncnc2c1c(N1CCC1)cn2-c1cccc(C#N)c1 [Compound 350, tert-butyl (S)-4-(5-(azetidin-1-yl)-7-(3-cyanophenyl)-7H-pyrrolo[2,3-d]pyrimidin-4-yl)-3-methylpiperazine-1-carboxylate]
> 7.00	> 7.00	> 7.00	C[C@H]1CN(C(=O)OC(C)(C)C)CCN1c1ncnc2c1c(-c1ccccn1)cn2-c1cc(C#N)ccn1 [Compound 352, tert-butyl (S)-4-(7-(4-cyanopyridin-2-yl)-5-(pyridin-2-yl)-7H-pyrrolo[2,3-d]pyrimidin-4-yl)-3-methylpiperazine-1-carboxylate]
> 7.00	> 7.00	> 7.00	C[C@H]1CN(C(=O)OC(C)(C)C)CCN1c1ncnc2c1c(-c1cccnc1)cn2-c1cc(C#N)ccn1 [Compound 353, tert-butyl (S)-4-(7-(4-cyanopyridin-2-yl)-5-(pyridin-3-yl)-7H-pyrrolo[2,3-d]pyrimidin-4-yl)-3-methylpiperazine-1-carboxylate]
> 7.00	> 7.00	> 7.00	C[C@H]1CN(C(=O)OC(C)(C)C)CCN1c1ncnc2c1c(-c1ccncc1)cn2-c1cc(C#N)ccn1 [Compound 354, tert-butyl (S)-4-(7-(4-cyanopyridin-2-yl)-5-(pyridin-4-yl)-7H-pyrrolo[2,3-d]pyrimidin-4-yl)-3-methylpiperazine-1-carboxylate]
